The assay relates to L1210 leukemia ip in BDF1 mice, survival T/C. The experiment in a line: NCI In Vivo Anticancer Drug Screen. Data for tumor model L1210 Leukemia (intraperitoneal) in B6D2F1 (BDF1) mice. The conditions noted are these: endpoint: mean survival time, higher = longer survival. Summed up:
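Each compound was tested against a transplantable tumor grown in mice. The endpoint was survival, with treated animals benchmarked against vehicle controls as a simple ratio.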

Setting [1] is: dose: 100.0 mg/kg/injection, schedule: Q01DX009 (ip), vehicle: Klucel (hydroxypropylcellulose) (HPC).
Setting [2] is: dose: 100.0 mg/kg/injection, schedule: Q04DX003 (ip), vehicle: Klucel (hydroxypropylcellulose) (HPC).
Setting [3] is: dose: 200.0 mg/kg/injection, schedule: Q01DX009 (ip), vehicle: Klucel (hydroxypropylcellulose) (HPC).
Setting [4] is: dose: 200.0 mg/kg/injection, schedule: Q04DX003 (ip), vehicle: Klucel (hydroxypropylcellulose) (HPC).
The mark [5] stands for this setting: dose: 100.0 mg/kg/injection, schedule: Q04DX002 (ip), vehicle: saline with Tween-80.
Where [6] appears, read: dose: 200.0 mg/kg/injection, schedule: Q04DX002 (ip), vehicle: saline with Tween-80.
Where [7] appears, read: dose: 400.0 mg/kg/injection, schedule: Q04DX002 (ip), vehicle: saline with Tween-80.
The mark [8] stands for this setting: dose: 100.0 mg/kg/injection, schedule: Q04DX003 (ip), vehicle: saline.
Setting [9] is: dose: 100.0 mg/kg/injection, schedule: Q01DX009 (ip), vehicle: saline with Tween-80.
Where [10] appears, read: dose: 50.0 mg/kg/injection, schedule: Q01DX001 (ip), vehicle: carboxymethylcellulose (CMC).
The mark [11] stands for this setting: dose: 100.0 mg/kg/injection, schedule: Q01DX001 (ip), vehicle: carboxymethylcellulose (CMC).
[12] abbreviates: dose: 200.0 mg/kg/injection, schedule: Q01DX001 (ip), vehicle: carboxymethylcellulose (CMC).
[13] abbreviates: dose: 100.0 mg/kg/injection, schedule: Q01DX001 (ip), vehicle: other.
The mark [14] stands for this setting: dose: 200.0 mg/kg/injection, schedule: Q01DX001 (ip), vehicle: other.

“And” between values parts separate entries of the source, which are not always exact repeats. Equal entries are not always repeated. Toxic doses and inconclusive results are not listed.

On to `CC(C)C(CCN1CCCCC1)(CN=C(N)N)c1cccc2ccccc12` (configuration not stated), for which the T/C (dose: 5.0 mg/kg/injection, schedule: Q01DX009 (ip), vehicle: saline) is 99 % of control; the T/C (dose: 6.25 mg/kg/injection, schedule: Q04DX002 (ip), vehicle: saline) was 100 % of control; the T/C (dose: 10.0 mg/kg/injection, schedule: Q01DX009 (ip), vehicle: saline) was 100 % of control; the T/C (dose: 12.5 mg/kg/injection, schedule: Q04DX002 (ip), vehicle: saline) was 93 % of control; the T/C (dose: 20.0 mg/kg/injection, schedule: Q01DX009 (ip), vehicle: saline) is 101 % of control; the T/C (dose: 25.0 mg/kg/injection, schedule: Q04DX002 (ip), vehicle: saline) is 97 % of control.

Consider `CCCCCCCCOC(=O)c1ccccc1C(=O)OCCCCCCCC`, for which the T/C under setting [1] was 96 % of control; the T/C under setting [2] was 97 % of control; the T/C under setting [3] was 94 % of control; the T/C under setting [4] was 93 % of control; the T/C (dose: 400.0 mg/kg/injection, schedule: Q01DX009 (ip), vehicle: Klucel (hydroxypropylcellulose) (HPC)) is 96 % of control; the T/C (dose: 400.0 mg/kg/injection, schedule: Q04DX003 (ip), vehicle: Klucel (hydroxypropylcellulose) (HPC)) was 92 % of control.

On to `COC(=O)NS(=O)(=O)Nc1ccccc1`, for which the T/C by setting is: under setting [5], 97 % of control; under setting [6], 87 % of control; under setting [7], 94 % of control.

Consider `CCN(CC)C(C)COC(=O)c1ccc(N)cc1` (configuration not stated), for which the T/C (dose: 12.5 mg/kg/injection, schedule: Q01DX009 (ip), vehicle: saline) was 101 % of control; the T/C (dose: 25.0 mg/kg/injection, schedule: Q01DX009 (ip), vehicle: saline) was 101 % of control; the T/C (dose: 50.0 mg/kg/injection, schedule: Q01DX009 (ip), vehicle: saline) was 95 % of control.

On to `c1cc[c]([Sn]([c]2ccccc2)([c]2ccccc2)[n]2cncn2)cc1`, for which the T/C reads like this: (dose: 6.25 mg/kg/injection, schedule: Q04DX002 (ip), vehicle: saline with Tween-80) 101 % of control; (dose: 12.5 mg/kg/injection, schedule: Q04DX002 (ip), vehicle: saline with Tween-80) 93 % of control; (dose: 25.0 mg/kg/injection, schedule: Q04DX002 (ip), vehicle: saline with Tween-80) 112 % of control.

Consider `C#CCNc1c(C)cccc1C`, for which the T/C is 107 % of control under setting [1], 98 % of control under setting [2], 102 % of control under setting [3] and 97 % of control under setting [4].

Regarding `CNC(=N)c1ccc(NC(=N)c2ccc(NC(=N)c3ccc(NC(=O)Nc4ccc(C#N)cc4)cc3)cc2)cc1`, the T/C by setting is: (dose: 3.25 mg/kg/injection, schedule: Q01DX015 (ip), vehicle: water) 119 % of control; (dose: 13.0 mg/kg/injection, schedule: Q01DX015 (ip), vehicle: water) 160 % of control; (dose: 17.0 mg/kg/injection, schedule: Q01DX Z (ip), vehicle: water) 152 % of control; (dose: 26.0 mg/kg/injection, schedule: Q01DX015 (ip), vehicle: water) 205 % of control; (dose: 30.0 mg/kg/injection, schedule: Q01DX001 (ip), vehicle: water) 112 % of control; (dose: 32.5 mg/kg/injection, schedule: Q01DX001 (ip), vehicle: water) 180 % of control. Further, the T/C by setting is: (dose: 34.0 mg/kg/injection, schedule: Q01DX Z (ip), vehicle: water) 153 % of control; (dose: 50.0 mg/kg/injection, schedule: Q01DX001 (ip), vehicle: water) 151 % of control; (dose: 65.0 mg/kg/injection, schedule: Q01DX001 (ip), vehicle: water) 165 % of control and 210 % of control and 228 % of control; (dose: 97.0 mg/kg/injection, schedule: Q01DX001 (ip), vehicle: water) 232 % of control and 267 % of control.

As for `CC(=N/Nc1ccc([N+](=O)[O-])cc1[N+](=O)[O-])/C(C)=C/C1C=CCCC1(C)C` (configuration not stated), the T/C was 100 % of control under setting [5], 103 % of control under setting [6] and 96 % of control under setting [7].

Take `O=[N+]([O-])c1ccc(N2CCCC2)cc1`: the T/C reads like this: (dose: 100.0 mg/kg/injection, schedule: Q01DX001 (ip), vehicle: Klucel (hydroxypropylcellulose) (HPC)) 97 % of control; (dose: 200.0 mg/kg/injection, schedule: Q01DX001 (ip), vehicle: Klucel (hydroxypropylcellulose) (HPC)) 105 % of control; (dose: 400.0 mg/kg/injection, schedule: Q01DX001 (ip), vehicle: Klucel (hydroxypropylcellulose) (HPC)) 108 % of control.

As for `CC(=O)OC1CCC2CCCCC2/C1=N\O` (configuration not stated), the T/C was 112 % of control (dose: 50.0 mg/kg/injection, schedule: Q04DX003 (ip), vehicle: saline); 95 % of control under setting [8]; 97 % of control (dose: 200.0 mg/kg/injection, schedule: Q04DX003 (ip), vehicle: saline).

For `OC(Cc1nccc2ccccc12)(C(F)(F)F)C(F)(F)F`, the T/C reads like this: under setting [9], 93 % of control; (dose: 100.0 mg/kg/injection, schedule: Q04DX003 (ip), vehicle: saline with Tween-80) 100 % of control; (dose: 200.0 mg/kg/injection, schedule: Q01DX009 (ip), vehicle: saline with Tween-80) 93 % of control; (dose: 200.0 mg/kg/injection, schedule: Q04DX003 (ip), vehicle: saline with Tween-80) 101 % of control; (dose: 400.0 mg/kg/injection, schedule: Q01DX009 (ip), vehicle: saline with Tween-80) 94 % of control; (dose: 400.0 mg/kg/injection, schedule: Q04DX003 (ip), vehicle: saline with Tween-80) 100 % of control.

For the molecule `CCCCCCCCOc1nccc(N)n1`, the T/C (dose: 75.0 mg/kg/injection, schedule: Q01DX001 (ip), vehicle: saline with Tween-80) was 105 % of control.

For `O=C1C2C3CCC(O3)C2C(=O)N1N1C(=O)C2C3CCC(O3)C2C1=O` (configuration not stated), the T/C (dose: 100.0 mg/kg/injection, schedule: Q01DX009 (ip), vehicle: carboxymethylcellulose (CMC)) is 102 % of control; the T/C (dose: 100.0 mg/kg/injection, schedule: Q04DX003 (ip), vehicle: carboxymethylcellulose (CMC)) was 110 % of control; the T/C (dose: 200.0 mg/kg/injection, schedule: Q01DX009 (ip), vehicle: carboxymethylcellulose (CMC)) was 97 % of control; the T/C (dose: 200.0 mg/kg/injection, schedule: Q04DX003 (ip), vehicle: carboxymethylcellulose (CMC)) was 111 % of control; the T/C (dose: 400.0 mg/kg/injection, schedule: Q01DX009 (ip), vehicle: carboxymethylcellulose (CMC)) is 87 % of control; the T/C (dose: 400.0 mg/kg/injection, schedule: Q04DX003 (ip), vehicle: carboxymethylcellulose (CMC)) is 101 % of control.

Take `CCCCCCCCCCCCOB(OCCCCCCCCCCCC)OCCCCCCCCCCCC`: the T/C is 96 % of control under setting [10]; 102 % of control under setting [11]; 98 % of control under setting [9]; 94 % of control under setting [12]; 94 % of control (dose: 400.0 mg/kg/injection, schedule: Q01DX001 (ip), vehicle: carboxymethylcellulose (CMC)).

`CN(C)N=Nc1ccc2ncccc2c1[N+](=O)[O-]`: the T/C is, setting by setting: under setting [13], 105 % of control; under setting [14], 103 % of control.

Regarding `N#CC(C#N)=Cc1ccc(Cl)cc1`, the T/C is 105 % of control (dose: 50.0 mg/kg/injection, schedule: Q01DX001 (ip), vehicle: other); 102 % of control under setting [13]; 113 % of control under setting [14].

As for `CCC(CC)(CCN(C)C)c1ccccc1`, the T/C reads like this: under setting [10], 98 % of control; under setting [11], 98 % of control; under setting [12], 104 % of control.

`[Cl][Pt+2][Cl].[NH-]c1ccc(Cl)cc1[NH-]`: the T/C is 178 % of control (dose: 12.5 mg/kg/injection, schedule: Q04DX003 (ip), vehicle: saline); 113 % of control (dose: 25.0 mg/kg/injection, schedule: Q04DX003 (ip), vehicle: saline); 105 % of control and 108 % of control under setting [8]; 103 % of control (dose: 800.0 mg/kg/injection, schedule: Q04DX003 (ip), vehicle: saline).

For the molecule `O=[N+]([O-])c1ccc(CCCl)cc1`, the T/C is 102 % of control (dose: 100.0 mg/kg/injection, schedule: Q04DX003 (ip), vehicle: acetone); 104 % of control (dose: 200.0 mg/kg/injection, schedule: Q04DX003 (ip), vehicle: acetone); 92 % of control (dose: 400.0 mg/kg/injection, schedule: Q04DX003 (ip), vehicle: acetone).

Source of the values: PubChem BioAssay AID248 (DTP/NCI, 2004).
